Laboratory results from US6812245B2, “Polycylic xanthones and their use” (Instituto Biomar S.A., priority 2000, dated 2004).

Columns and labels:
Format in all cases: cell-based
[1] = tested on: human lung carcinoma A-549; assay: in vitro antitumour activity in cell cultures, human lung carcinoma A-549; details: A549; human lung carcinoma A-549 cell culture
Experimental: (§1) The antitumour activities of IB-00208 have been determined in vitro in cell cultures of mouse leukaemia P-388, human lung carcinoma A-549, human colon carcinoma HT-29 and human melanoma MEL-28. The procedure was carried out using the methodology described by Bergeron et al. The IC50 found was of 0.001, 0.001, 0.001, and 0.001 μg/ml for all 4 cell lines.

[2] = tested on: human colon carcinoma HT-29; assay: in vitro antitumour activity in cell cultures, human colon carcinoma HT-29; details: human colon carcinoma HT-29 cell culture
Experimental: as §1

[3] = tested on: human melanoma MEL-28; assay: in vitro antitumour activity in cell cultures, human melanoma MEL-28; details: SK-MEL-28; human melanoma MEL-28 cell culture
Experimental: as §1

[4] = tested on: mouse leukaemia P-388; assay: in vitro antitumour activity in cell cultures, mouse leukaemia P-388; details: P388; mouse leukaemia P-388 cell culture
Experimental: as §1

Measured: IC50

COc1ccc(OC)c2c(=O)c3c(oc12)C(=O)c1ccc2c(OC4OC(C)C(OC)C(OC)C4OC)c4c(c(O)c2c1C3=O)C(=O)OC(C)C4 (stereo not shown) [IB-00208]
1 ng/mL: [1] | [2] | [3] | [4]
